Laboratory results: the supplement of paper PMC11208160

assay: recombinant UMI read abundance after kanamycin selection (control-corrected) (log10(CPM+1)); higher = more efficient recombination; extreme values may be limits of the assay; sequences stand for … in AGTGCAGAGAAAATCGGCCAGTTTTCTCTGCCTGCAGTCCGCATGCCGTGGGACCCCTTGGGTTCTAACCTGTTGCCTAGATTTATGCAGCGGACTGCCTTTCTCCCAAAGTGATAAACCGG…AGGTTGGTTTCACT; site = the 11-nt donor
Outline: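 Counts of recombinant UMIs were reported as log10(CPM+1). Before that, they were converted to CPM, averaged over replicates and scaled using control-derived factors. They came from PCR across the donor–target junction after Escherichia coli carrying the pair library and target plasmid was plated on IPTG (0.07 mM) plus kanamycin, or unselected, in two replicates each.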
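Also: IS621 bridge recombinase in Escherichia coli cells against a fixed T5 target plasmid.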

Row | Sequence | recombinant UMI read abundance (log10)
1 | TTACGTGCATGGACCGGTTTTCCCGGTAATCCGTATTTGTA (site TTACGTGCTTA) | 1.51
2 | TTACGTTCATGGACCGGTTTTCCCGGTAATCCGTATTTGAG (site TTACGTTCTCT) | 1.76
3 | TTACTGTCATGGACCGGTTTTCCCGGTAATCCGTATTTGGA (site TTACTGTCTTC) | 1.38
4 | TTAGAACCATGGACCGGTTTTCCCGGTAATCCGTATTTGCC (site TTAGAACCTGG) | 0
5 | TTAGATCCATGGACCGGTTTTCCCGGTAATCCGTATTTGAG (site TTAGATCCTCT) | 0.358
6 | TTAGCAACATGGACCGGTTTTCCCGGTAATCCGTATTTGAG (site TTAGCAACTCT) | 0.835
7 | TTAGCGGCATGGACCGGTTTTCCCGGTAATCCGTATTTGTG (site TTAGCAGCTCA) | 0.356
8 | TTAGCGGCATGGACCGGTTTTCCCGGTAATCCGTATTTGTG (site TTAGCCGCTCA) | 0.00441
9 | TTAGCGGCATGGACCGGTTTTCCCGGTAATCCGTATTTGTG (site TTAGCGGCTCA) | 1.51
10 | TTAGCGGCATGGACCGGTTTTCCCGGTAATCCGTATTTGTG (site TTAGCTGCTCA) | 0.0387
11 | TTAGCTGCATGGACCGGTTTTCCCGGTAATCCGTATTTGTT (site TTAGCTGCTAA) | 1.08
12 | TTAGCTGCATGGACCGGTTTTCCCGGTAATCCGTATTTGTT (site TTAGCTGCTCA) | 0.187
13 | TTAGCTGCATGGACCGGTTTTCCCGGTAATCCGTATTTGTT (site TTAGCTGCTGA) | 0.423
14 | TTAGCTGCATGGACCGGTTTTCCCGGTAATCCGTATTTGTT (site TTAGCTGCTTA) | 0.0119
15 | TTAGGACCATGGACCGGTTTTCCCGGTAATCCGTATTTGCA (site TTAGGACCTTG) | 0.00659
16 | TTAGGTACATGGACCGGTTTTCCCGGTAATCCGTATTTGAC (site ATAGGTACTGT) | 0.0067
17 | TTAGGTACATGGACCGGTTTTCCCGGTAATCCGTATTTGAC (site CTAGGTACTGT) | 0
18 | TTAGGTACATGGACCGGTTTTCCCGGTAATCCGTATTTGAC (site GTAGGTACTGT) | 0
19 | TTAGGTACATGGACCGGTTTTCCCGGTAATCCGTATTTGAC (site TTAGGTACTGT) | 1.98
20 | TTAGTATCATGGACCGGTTTTCCCGGTAATCCGTATTTGTC (site CTAGTATCTGT) | 0
21 | TTAGTATCATGGACCGGTTTTCCCGGTAATCCGTATTTGTC (site TTAGTATCTGA) | 1.77
22 | TTATAAGCATGGACCGGTTTTCCCGGTAATCCGTATTTGAG (site TTATAAGCTCT) | 1.65
23 | TTATACCCATGGACCGGTTTTCCCGGTAATCCGTATTTGAG (site TTATACCCTCT) | 0.00206

Row | Sequence | recombinant UMI read abundance (log10)
24 | TTATCATCATGGACCGGTTTTCCCGGTAATCCGTATTTGCT (site CGATCATCTAG) | 0.595
25 | TTATCATCATGGACCGGTTTTCCCGGTAATCCGTATTTGCT (site TTATCATCTAG) | 1.98
26 | TTATGAGCATGGACCGGTTTTCCCGGTAATCCGTATTTGGG (site TAATGAGCTCC) | 0.0152
27 | TTATGAGCATGGACCGGTTTTCCCGGTAATCCGTATTTGGG (site TCATGAGCTCC) | 0.0145
28 | TTATGAGCATGGACCGGTTTTCCCGGTAATCCGTATTTGGG (site TGATGAGCTCC) | 0.0171
29 | TTATGAGCATGGACCGGTTTTCCCGGTAATCCGTATTTGGG (site TTATGAGCTCC) | 0.0057
30 | TTATGCGCATGGACCGGTTTTCCCGGTAATCCGTATTTGCC (site TTATGCGCTGG) | 1.93
31 | TTATTACCATGGACCGGTTTTCCCGGTAATCCGTATTTGGG (site TTATTACCTCC) | 0.0164
32 | TTATTTACATGGACCGGTTTTCCCGGTAATCCGTATTTGAA (site TTATTTACTTT) | 0.00385
33 | TTCAACCCATGGACCGGTTTTCCCGGTAATCCGTATTTGGA (site TTCAACCCTTC) | 0
34 | TTCAACTCATGGACCGGTTTTCCCGGTAATCCGTATTTGTC (site TTCAACTCTGA) | 0.222
35 | TTCAATTCATGGACCGGTTTTCCCGGTAATCCGTATTTGCC (site TACAATTCTGG) | 0
36 | TTCAATTCATGGACCGGTTTTCCCGGTAATCCGTATTTGCC (site TCCAATTCTGG) | 0
37 | TTCAATTCATGGACCGGTTTTCCCGGTAATCCGTATTTGCC (site TGCAATTCTGG) | 0
38 | TTCAATTCATGGACCGGTTTTCCCGGTAATCCGTATTTGCC (site TTCAATTCTGG) | 0
39 | TTCACGCCATGGACCGGTTTTCCCGGTAATCCGTATTTGAC (site TTCACGCCTGT) | 0
40 | TTCACTTCATGGACCGGTTTTCCCGGTAATCCGTATTTGTG (site TTCACTTCTCA) | 0.00654
41 | TTCAGCTCATGGACCGGTTTTCCCGGTAATCCGTATTTGTT (site TTCAGCTCTAA) | 0.00312
42 | TTCATGACATGGACCGGTTTTCCCGGTAATCCGTATTTGCG (site TTCATGACTCG) | 0
43 | TTCCCGCCATGGACCGGTTTTCCCGGTAATCCGTATTTGCT (site TTCCCGCCTAG) | 0.552
44 | TTCCTCACATGGACCGGTTTTCCCGGTAATCCGTATTTGCT (site TTCCTCACTAG) | 0.293
45 | TTCGAGACATGGACCGGTTTTCCCGGTAATCCGTATTTGCA (site TTCGAGACTTG) | 0.725
46 | TTCGCCTCATGGACCGGTTTTCCCGGTAATCCGTATTTGAT (site TTCGCCTCTAT) | 0.521

Row | Sequence | recombinant UMI read abundance (log10)
47 | TTCGCGACATGGACCGGTTTTCCCGGTAATCCGTATTTGAA (site TTCGCGACTTT) | 0.0402
48 | TTCGCTTCATGGACCGGTTTTCCCGGTAATCCGTATTTGTG (site TTCGCTTCTCA) | 0
49 | TTCGGCACATGGACCGGTTTTCCCGGTAATCCGTATTTGAG (site TTCGGCACTCT) | 0.00333
50 | TTCGGGGCATGGACCGGTTTTCCCGGTAATCCGTATTTGTC (site TTCGGGGCTGA) | 0
51 | TTCGTCCCATGGACCGGTTTTCCCGGTAATCCGTATTTGTC (site TTCGTCCCTGA) | 0
52 | TTCTACACATGGACCGGTTTTCCCGGTAATCCGTATTTGCT (site ATCTACACTAG) | 0.34
53 | TTCTACACATGGACCGGTTTTCCCGGTAATCCGTATTTGCT (site CTCTACACTAG) | 1.12
54 | TTCTACACATGGACCGGTTTTCCCGGTAATCCGTATTTGCT (site GTCTACACTAG) | 0.569
55 | TTCTACACATGGACCGGTTTTCCCGGTAATCCGTATTTGCT (site TTCTACACTAG) | 1.16
56 | TTCTAGGCATGGACCGGTTTTCCCGGTAATCCGTATTTGGT (site TACTAGGCTAC) | 0.00535
57 | TTCTAGGCATGGACCGGTTTTCCCGGTAATCCGTATTTGGT (site TCCTAGGCTAC) | 0.0191
58 | TTCTAGGCATGGACCGGTTTTCCCGGTAATCCGTATTTGGT (site TGCTAGGCTAC) | 0.0112
59 | TTCTAGGCATGGACCGGTTTTCCCGGTAATCCGTATTTGGT (site TTCTAGGCTAC) | 0.0102
60 | TTCTAGTCATGGACCGGTTTTCCCGGTAATCCGTATTTGAC (site TTCTAGTCTGT) | 0
61 | TTCTCCGCATGGACCGGTTTTCCCGGTAATCCGTATTTGAA (site TTCTCCGCTTT) | 0.0825
62 | TTCTCCTCATGGACCGGTTTTCCCGGTAATCCGTATTTGTT (site TTCTCCTCTAA) | 0.151
63 | TTCTCTTCATGGACCGGTTTTCCCGGTAATCCGTATTTGTG (site TTCTCTTCTCA) | 0.00971
64 | TTCTGGGCATGGACCGGTTTTCCCGGTAATCCGTATTTGCA (site TTCTGGGCTTG) | 0.345
65 | TTCTGTCCATGGACCGGTTTTCCCGGTAATCCGTATTTGCG (site TTCTGTCCTCG) | 0.00535
66 | TTCTTCCCATGGACCGGTTTTCCCGGTAATCCGTATTTGGC (site TTCTTCCCTGC) | 0
67 | TTCTTGACATGGACCGGTTTTCCCGGTAATCCGTATTTGCT (site TACTTGACTAG) | 0.126
68 | TTCTTGACATGGACCGGTTTTCCCGGTAATCCGTATTTGCT (site TCCTTGACTAG) | 0.513
